Laboratory results from article PMC6545112 (Journal of medicinal chemistry, 2018).
Entries after “also recorded” stand apart in the source; their conditions may differ. Like-named read-outs stand apart in the source and are kept apart here.

Tests used:
RS4;11 cell line = experiment: cell growth inhibition, WST-8 assay, RS4; format: cell-based, human; conditions: for IC50: 4 days, WST-8 assay
[1] = tested on: leukemia cell lines with mutated p53; experiment: cell growth inhibition, leukemia cell lines with mutated p53; format: cell-based, human; conditions: read-out: IC50 in leukemia cell lines with mutated p53
MV4;11 AML cell line = experiment: cell growth inhibition, MV4; format: cell-based, human
[2] = molecular target: MDM2 and p53 proteins in RS4;11 cells (Homo sapiens, UniProt Q00987); experiment: western blotting analysis of MDM2 and p53 proteins in RS4; format: cell-based
Chain of MDM2 and p53 proteins in RS4;11 cells (Q00987 whole entry): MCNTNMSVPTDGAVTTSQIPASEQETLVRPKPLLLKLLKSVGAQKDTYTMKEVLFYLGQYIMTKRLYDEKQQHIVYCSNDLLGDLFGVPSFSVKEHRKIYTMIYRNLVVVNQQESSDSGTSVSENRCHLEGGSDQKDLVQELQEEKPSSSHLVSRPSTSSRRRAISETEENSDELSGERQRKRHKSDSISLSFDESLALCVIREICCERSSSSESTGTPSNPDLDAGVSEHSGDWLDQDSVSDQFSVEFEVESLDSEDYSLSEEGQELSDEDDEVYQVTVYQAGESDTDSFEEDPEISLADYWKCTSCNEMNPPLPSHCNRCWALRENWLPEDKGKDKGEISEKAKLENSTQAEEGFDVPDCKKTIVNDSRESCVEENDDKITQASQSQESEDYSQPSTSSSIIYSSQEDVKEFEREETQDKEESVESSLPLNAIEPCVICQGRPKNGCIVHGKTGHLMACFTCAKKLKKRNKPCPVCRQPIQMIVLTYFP

[3] = tested on: p53 target genes (MDM2, p21, PUMA) and TP53 in RS4;11 cells; experiment: qRT-PCR analysis of mRNA levels of p53 target genes and TP53 in RS4; format: cell-based, human; conditions: RS4;11, 6 h
RS4;11 xenograft tumors = experiment: antitumor activity in the RS4; format: in vivo, mice
[4] = first efficacy experiment
[5] = tested on: MDM2, p53, p21 and PARP cleavage in RS4;11 xenograft tumors; conditions: single dose, mice; cited from earlier work
MOLM-13 = experiment: cell growth inhibition assay, MOLM-13; format: cell-based, human; conditions: read-out: IC50 (nM) in cell growth inhibition assay; MOLM-13, AML, p53 WT
MOLM-14 = experiment: cell growth inhibition assay, MOLM-14; format: cell-based, human; conditions: read-out: IC50 (nM) in cell growth inhibition assay; MOLM-14, AML, p53 WT
SIG-M5 = experiment: cell growth inhibition assay, SIG-M5; format: cell-based, human; conditions: read-out: IC50 (nM) in cell growth inhibition assay; SIG-M5, AML, p53 WT
ML-2 = experiment: cell growth inhibition assay, ML-2; format: cell-based, human; conditions: read-out: IC50 (nM) in cell growth inhibition assay; ML-2, AML, p53 WT
OCL-AML-5 = experiment: cell growth inhibition assay, OCL-AML-5; format: cell-based, human; conditions: read-out: IC50 (nM) in cell growth inhibition assay; OCL-AML-5, AML, p53 WT
Mono-Mac-6 = experiment: cell growth inhibition assay, Mono-Mac-6; format: cell-based, human; conditions: read-out: IC50 in cell growth inhibition assay; Mono-Mac-6, AML, p53 MUT
KG-1 = experiment: cell growth inhibition assay, KG-1; format: cell-based, human; conditions: read-out: IC50 in cell growth inhibition assay; KG-1, AML, p53 MUT
[6] = tested on: human acute leukemia cell lines with wild-type p53; experiment: cell growth inhibition, panel of acute leukemia cell lines with wild-type p53; format: cell-based
RS4;11 cells = experiment: flow cytometric analysis of apoptosis, Annexin V/PI double staining; format: cell-based, human; conditions: RS4;11, 24 h treatment
[7] = tested on: MDM2, p53, p21 and PARP cleavage in RS4;11 xenograft tumors; experiment: pharmacodynamic analysis in RS4; format: in vivo, mice; conditions: single dose 25 mg/kg, IV
[8] = molecular target: MDM2 and p53 proteins in MV4;11 cell line (Homo sapiens, UniProt Q00987); experiment: western blotting analysis of MDM2 and p53 proteins in MV4; format: cell-based; conditions: MV4;11, 2 h, compared to RS4;11
Chain of MDM2 and p53 proteins in MV4;11 cell line (Q00987 whole entry): as above

[9] = read-out: IC50 (nM) in inhibition of cell growth in the RS4;11 cell line

## O=C(O)c1ccc(NC(=O)[C@@H]2NC3(CCCCC3)[C@@]3(C(=O)Nc4cc(Cl)ccc43)[C@H]2c2cccc(Cl)c2F)cc1 [MI-1061, reference compound]
RS4;11 cell line; RS4;11, 4 days, WST-8
  effect of pretreatment with lenalidomide on cell growth inhibitory activity: no significant effect
[1]; Homo sapiens
  IC50: > 10000 nM
MV4;11 AML cell line
  effect of pretreatment with lenalidomide on cell growth inhibitory activity: has no effect on the activity
[2]; RS4;11 cells, 2 h treatment
  effect on MDM2 and p53 protein levels (western blotting): inducing accumulation of both MDM2 and p53; also recorded: induces accumulation of both MDM2 and p53 proteins
[3]
  transcriptional upregulation of p53 target genes (MDM2, p21, PUMA): effectively induces marked transcriptional upregulation of p53 target genes
RS4;11 xenograft tumors; 100 mg/kg, oral, daily dosing (5 days a week)
  antitumor activity: effectively retards tumor growth over the control
[4]
  weight loss or other signs of toxicity: no significant weight loss or other signs of toxicity

## CC(C)(C)C[C@@H]1N[C@@H](C(=O)N[C@H]2CC[C@H](O)CC2)[C@H](c2cccc(Cl)c2F)[C@]12C(=O)Nc1cc(Cl)ccc12 [MI-77301]
[5]
  duration of p53 protein upregulation in tumor tissue: only a few hours

## (3’R,4’S,5’R)-6”-Chloro-4’-(3-Chloro-2-fluorophenyl)-N-(4-((5-(2-(2,6-dioxopiperidin-3-yl)-1,3-dioxoisoindolin-4-yl)pent-4-yn-1-yl)carbamoyl)phenyl)-2”-oxodispiro[cyclohexane-1,2’-pyrrolidine-3’,3”-indoline]-5’-carboxamide [Compound 14]
RS4;11 cell line; RS4;11
  times more potent than MD-222 in inhibition of cell growth: 2 times
RS4;11 cell line; [9]
  IC50: 1.5 ± 0.5 nM
MOLM-13
  IC50: 7.3 ± 3 nM
MOLM-14
  IC50: 10.5 ± 3 nM
SIG-M5
  IC50: 19.8 ± 11 nM
ML-2
  IC50: 4.4 ± 2 nM
OCL-AML-5
  IC50: 33.1 ± 18 nM
Mono-Mac-6
  IC50: > 10000 nM
KG-1
  IC50: > 10000 nM
[6]
  times more potent than MI-1061 in cell growth inhibition: > 10 times
[1]
  IC50: > 10000 nM
[3]
  effect on TP53 mRNA: have no effect on TP53
  times more potent than MI-1061 in transcriptional upregulation of p53 target genes: > 10 times
RS4;11 cells
  times more potent than MI-1061 in inducing apoptosis: > 10 times
[7]
  PARP cleavage in tumor tissue: evident at the 24 h time point
[7]; depleted at 3 h
  persistence of MDM2 protein depletion in tumor tissue: > 24 h
[7]; strong at 3 h
  duration of p53 and p21 upregulation in tumor tissue: > 24 h
RS4;11 xenograft tumors; 25 mg/kg, daily, 5 days a week for 2 weeks
  antitumor activity: complete tumor regression
RS4;11 xenograft tumors; 50 mg/kg, every other day for three weeks
  antitumor activity: complete tumor regression
RS4;11 xenograft tumors; 50 mg/kg, weekly dosing
  antitumor activity: complete tumor growth inhibition

## (3’R,4’S,5’R)-6”-Chloro-4’-(3-Chloro-2-fluorophenyl)-N-(4-((5-(2-(2,6-dioxopiperidin-3-yl)-1-oxoisoindolin-4-yl)pentyl)carbamoyl)phenyl)-2”-oxodispiro[cyclohexane-1,2’-pyrrolidine-3’,3”-indoline]-5’-carboxamide [Compound 13]
RS4;11 cell line; RS4;11
  times more potent than 1 in inhibition of cell growth: 4 times
RS4;11 cell line; [9]
  IC50: 2.8 ± 1.1 nM
MOLM-13
  IC50: 11.7 ± 4 nM
MOLM-14
  IC50: 22.5 ± 8 nM
SIG-M5
  IC50: 29.9 ± 16 nM
ML-2
  IC50: 11.5 ± 6 nM
OCL-AML-5
  IC50: 58.2 ± 29 nM
Mono-Mac-6
  IC50: > 10000 nM
KG-1
  IC50: > 10000 nM
[2]; RS4;11 / leukemia cells, 2 h treatment
  concentration that reduces/depletes MDM2 protein: ≤ 1 nM
[8]
  effect on MDM2 and p53 protein levels (western blotting): similarly potent and effective in inducing depletion of MDM2 protein and accumulation of p53 protein
[3]
  effect on TP53 mRNA: have no effect on TP53
  times more potent than MI-1061 in transcriptional upregulation of p53 target genes: > 10 times

## (3’R,4’S,5’R)-6”-Chloro-4’-(3-Chloro-2-fluorophenyl)-N-(4-((5-(2-(2,6-dioxopiperidin-3-yl)-3-oxoisoindolin-5-yl)pent-4-yn-1-yl)carbamoyl)phenyl)-2”-oxodispiro[cyclohexane-1,2’-pyrrolidine-3’,3”-indoline]-5’-carboxamide [Compound 17]
RS4;11 cell line; RS4;11
  times less potent than MD-224 in inhibition of cell growth: 3 times
RS4;11 cell line; [9]
  IC50: 5 ± 3 nM
[2]; RS4;11 cells, 2 h treatment
  effect on MDM2 and p53 protein levels (western blotting): effectively induce degradation of MDM2 and accumulation of p53

## (3’R,4’S,5’R)-6”-Chloro-4’-(3-Chloro-2-fluorophenyl)-N-(4-(((S)-14-((2S,4R)-4-hydroxy-2-(((S)-1-(4-(4-methylthiazol-5-yl)phenyl)ethyl)carbamoyl)pyrrolidine-1-carbonyl)-15,15-dimethyl-12-oxo-3,6,9-trioxa-13-azahexadecyl)carbamoyl)phenyl)-2”-oxodispiro[cyclohexane-1,2’-pyrrolidine-3’,3”-indoline]-5’-carboxamide [Compound 20]
RS4;11 cell line; [9]
  IC50: 340 ± 20 nM
RS4;11 cell line; read-out: IC50 in the cell growth assay in the RS4;11 cell line
  IC50: 300 nM
[2]; RS4;11 cells, 12 h treatment
  effect on MDM2 protein level (western blotting): fails to reduce the level of MDM2 protein

## (3’R,4’S,5’R)-6”-Chloro-4’-(3-chloro-2-fluorophenyl)-N-(4-((2-(2,6-dioxopiperidin-3-yl)-1-oxoisoindolin-4-yl)carbamoyl)phenyl)-2”-oxodispiro[cyclohexane-1,2’-pyrrolidine-3’,3”-indoline]-5’-carboxamide [Compound 3]
RS4;11 cell line; [9]
  IC50: 68.4 ± 36 nM
[2]; RS4;11 cells, 2 h treatment
  effect on MDM2 and p53 protein levels (western blotting): fails to induce MDM2 degradation
